According to patent US10624968B2, “Compounds for treating cancer” (Bicycle Therapeutics Limited, priority 2017, dated 2020):
Read-outs that look alike come from different tables or passages of the source. Starred links: 1 amine or outer side, 2 acyl side, 3 side chain; linkers in the order of their positions; H or OH if unused. Positions of bridges follow the written chain, without caps; N, C: chain ends. Non-standard residues stand in square brackets, D forms with d. Residues, ends and D or L forms follow the SMILES beside them. 1Nal = N[C@@H](Cc1cccc2ccccc12)C(=O)O; TBMB = c1c(C[*:1])cc(C[*:3])cc1C[*:2]; Tle = CC(C)(C)[C@H](N)C(=O)O; βAla = NCCC(=O)O; Sar = CNCC(=O)O

Tests used:
HT29 [1] = conditions: historical, read-out: IC50* (Historical IC50 observed for paclitaxel); cited from earlier work
HCC1806 [2] = conditions: historical, read-out: IC50* (Historical IC50 observed for paclitaxel); cited from earlier work
SNU-16 [3] = conditions: historical, read-out: IC50* (Historical IC50 observed for paclitaxel); cited from earlier work
HT1080 [4] = conditions: historical, read-out: IC50* (Historical IC50 observed for paclitaxel); cited from earlier work
NCI-H1975 [5] = conditions: historical, read-out: IC50* (Historical IC50 observed for paclitaxel); cited from earlier work
NCI-H292 [6] = test: cells; conditions: Homo sapiens, NCI-H292, 72 h
From the text: (§1) Details of the initial cell plating procedure are described in Table 3.
(§2) Data Details for Tables 5 and 6. Inhibition %=(Max−Sample value)/(Max−Min)*100.
(§3) The IC50 curves were generated by 4 Parameter Logistic Model—Sigmoidal Dose-Response Model as follows: Y=Bottom+(Top−Bottom)/(1+10^((log EC50-X)*HillSlope)).

HT1080 [7] = test: cells; conditions: Homo sapiens, HT-1080, 72 h
From the text: as §1, §2, §3

NCI-H1975 [8] = test: cells; conditions: Homo sapiens, NCI-H1975, 72 h
From the text: as §1, §2, §3

HCC1806 [9] = test: cells; conditions: Homo sapiens, HCC1806, 72 h
From the text: as §1, §2, §3

EBC-1 [10] = test: cells; conditions: Homo sapiens, EBC-1, 72 h
From the text: as §1, §2, §3

SNU-16 [11] = test: cells; conditions: Homo sapiens, SNU-16, 72 h
From the text: as §1, §2, §3

MOLP-8 [12] = test: cells; conditions: Homo sapiens, MOLP-8, 72 h
From the text: as §1, §2, §3

HCT15 [13] = test: cells; conditions: Homo sapiens, HCT-15, 72 h
From the text: as §1, §2, §3

HT29 [14] = test: cells; conditions: Homo sapiens, HT-29, 72 h
From the text: as §1, §2, §3

MDA-MB-231 [15] = test: cells; conditions: Homo sapiens, MDA-MB-231, 72 h
From the text: as §1, §2, §3

PC-3 [16] = test: cells; conditions: Homo sapiens, PC-3, 72 h
From the text: as §1, §2, §3

HCT15 [17] = conditions: historical, read-out: IC50* (Historical IC50 observed for paclitaxel); cited from earlier work
PC-3 [18] = conditions: historical, read-out: IC50* (Historical IC50 observed for paclitaxel); cited from earlier work
MOLP-8 [19] = conditions: historical, read-out: IC50* (Historical IC50 observed for paclitaxel); cited from earlier work
EBC-1 [20] = conditions: historical, read-out: IC50* (Historical IC50 observed for paclitaxel); cited from earlier work
NCI-H292 [21] = conditions: historical, read-out: IC50* (Historical IC50 observed for paclitaxel); cited from earlier work
MDA-MB-231 [22] = conditions: historical, read-out: IC50* (Historical IC50 observed for paclitaxel); cited from earlier work
11 tumor cell lines = test: 11 cancer cell line panel cytotoxicity, statements on the whole panel
From the text: as §1, §2, §3

MMP15 = MMP15 (Homo sapiens, UniProt P51511); test: Binding to related MMP family members
catalytic domain of MT1 = test: Bicycle peptide binding to catalytic domain
hemopexin domain of MT1 = hemopexin domain of MT1 (Homo sapiens, UniProt P50281); test: Bicycle peptide binding to hemopexin domain of MT1; conditions: read-out: apparent Kd
[23] = tested on: cell migration or invasion; test: Effect on cell migration or invasion; format: cell-based
MT1 = MT1 (Homo sapiens, UniProt P50281); test: Effect on catalytic activity of the protease in vitro; format: biochemical
MMP24 = MMP24 (Homo sapiens, UniProt Q9Y5R2); test: Binding to related MMP family members
MMP2 [24] = target: T1, MMP2 (Homo sapiens, UniProt P08253); test: Effect on related MMP catalytic activity; format: biochemical
MMP1 [25] = target: T2, MMP1 (Homo sapiens, UniProt P03956); test: Effect on related MMP catalytic activity; format: biochemical
MMP2 [26] = target: T1, MMP2; test: Binding to related MMP family members
Pro-MMP1 = target: T3, Pro-MMP1 (Homo sapiens, UniProt P03956); test: Binding to related MMP family members
T3 construct: (MMP15, MMP16, MMP24, MMP1, Pro-MMP1, MMP2)

MMP1 [27] = target: T2, MMP1; test: Binding to related MMP family members
MMP16 = MMP16 (Homo sapiens, UniProt P51512); test: Binding to related MMP family members
MMP9 = MMP9 (Homo sapiens, UniProt P14780); test: Effect on related MMP catalytic activity; format: biochemical
MT1-MMP = MT1-MMP (Homo sapiens, UniProt P50281); test: MT1-MMP fluorescent polarization competition; format: binding; conditions: up to 20 μM

T1 sequence (P08253 110-660, species assumed): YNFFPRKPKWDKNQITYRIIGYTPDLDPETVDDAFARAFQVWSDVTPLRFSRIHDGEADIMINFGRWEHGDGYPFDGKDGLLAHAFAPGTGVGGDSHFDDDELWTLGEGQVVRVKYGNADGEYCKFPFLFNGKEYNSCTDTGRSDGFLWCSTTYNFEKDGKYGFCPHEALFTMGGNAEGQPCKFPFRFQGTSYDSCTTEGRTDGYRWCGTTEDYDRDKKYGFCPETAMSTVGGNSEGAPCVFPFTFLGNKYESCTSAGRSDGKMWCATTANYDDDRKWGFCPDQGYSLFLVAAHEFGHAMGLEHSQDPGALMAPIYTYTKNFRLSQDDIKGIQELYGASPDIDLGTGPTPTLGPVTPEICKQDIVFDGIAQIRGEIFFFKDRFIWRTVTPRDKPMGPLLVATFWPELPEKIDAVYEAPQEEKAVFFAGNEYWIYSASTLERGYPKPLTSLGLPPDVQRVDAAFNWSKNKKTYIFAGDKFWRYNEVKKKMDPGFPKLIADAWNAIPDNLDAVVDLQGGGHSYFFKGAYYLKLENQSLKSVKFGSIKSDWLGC
T2 sequence (P03956 100-469, species assumed): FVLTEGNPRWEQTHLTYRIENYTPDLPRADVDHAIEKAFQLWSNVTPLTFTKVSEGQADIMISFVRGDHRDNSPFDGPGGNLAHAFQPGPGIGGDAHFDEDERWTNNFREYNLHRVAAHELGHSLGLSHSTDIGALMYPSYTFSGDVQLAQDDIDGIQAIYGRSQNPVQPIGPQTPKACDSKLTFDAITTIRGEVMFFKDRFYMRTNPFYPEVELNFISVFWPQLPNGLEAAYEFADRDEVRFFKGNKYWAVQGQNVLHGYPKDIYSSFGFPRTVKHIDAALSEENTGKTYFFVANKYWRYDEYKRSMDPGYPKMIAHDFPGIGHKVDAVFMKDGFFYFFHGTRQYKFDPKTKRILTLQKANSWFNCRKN
T3 sequence (P03956 20-469 limits assumed): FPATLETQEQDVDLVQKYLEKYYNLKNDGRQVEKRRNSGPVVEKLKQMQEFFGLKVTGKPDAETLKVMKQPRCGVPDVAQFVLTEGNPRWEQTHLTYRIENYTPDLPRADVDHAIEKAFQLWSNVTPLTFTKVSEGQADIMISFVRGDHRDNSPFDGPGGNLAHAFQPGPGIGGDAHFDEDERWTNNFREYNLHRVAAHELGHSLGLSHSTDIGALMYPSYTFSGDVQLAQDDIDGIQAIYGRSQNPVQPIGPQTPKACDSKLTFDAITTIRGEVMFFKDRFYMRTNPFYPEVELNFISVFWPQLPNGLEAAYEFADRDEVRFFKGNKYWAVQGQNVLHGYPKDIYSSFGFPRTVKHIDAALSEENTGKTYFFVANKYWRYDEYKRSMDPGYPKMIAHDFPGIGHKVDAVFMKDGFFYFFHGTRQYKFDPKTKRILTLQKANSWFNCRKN
Chain of MMP9 (P14780 94-707, species assumed): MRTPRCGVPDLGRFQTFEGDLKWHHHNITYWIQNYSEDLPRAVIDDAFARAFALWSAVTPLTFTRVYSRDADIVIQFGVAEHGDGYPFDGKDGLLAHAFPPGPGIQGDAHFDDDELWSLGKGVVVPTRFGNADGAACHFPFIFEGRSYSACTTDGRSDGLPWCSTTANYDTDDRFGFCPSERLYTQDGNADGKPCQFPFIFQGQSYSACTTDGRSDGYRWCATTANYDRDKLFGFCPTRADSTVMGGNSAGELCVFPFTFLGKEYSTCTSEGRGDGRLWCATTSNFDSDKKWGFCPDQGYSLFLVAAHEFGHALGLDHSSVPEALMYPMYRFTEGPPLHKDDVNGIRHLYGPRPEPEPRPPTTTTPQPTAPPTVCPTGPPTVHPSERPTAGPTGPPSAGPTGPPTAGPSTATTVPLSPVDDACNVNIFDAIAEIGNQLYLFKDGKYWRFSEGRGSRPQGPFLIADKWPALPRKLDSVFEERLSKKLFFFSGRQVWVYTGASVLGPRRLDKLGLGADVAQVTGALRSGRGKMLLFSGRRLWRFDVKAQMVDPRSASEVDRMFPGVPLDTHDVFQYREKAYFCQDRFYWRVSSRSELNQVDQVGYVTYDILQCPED
Chain of MMP15 (P51511 132-669, species assumed): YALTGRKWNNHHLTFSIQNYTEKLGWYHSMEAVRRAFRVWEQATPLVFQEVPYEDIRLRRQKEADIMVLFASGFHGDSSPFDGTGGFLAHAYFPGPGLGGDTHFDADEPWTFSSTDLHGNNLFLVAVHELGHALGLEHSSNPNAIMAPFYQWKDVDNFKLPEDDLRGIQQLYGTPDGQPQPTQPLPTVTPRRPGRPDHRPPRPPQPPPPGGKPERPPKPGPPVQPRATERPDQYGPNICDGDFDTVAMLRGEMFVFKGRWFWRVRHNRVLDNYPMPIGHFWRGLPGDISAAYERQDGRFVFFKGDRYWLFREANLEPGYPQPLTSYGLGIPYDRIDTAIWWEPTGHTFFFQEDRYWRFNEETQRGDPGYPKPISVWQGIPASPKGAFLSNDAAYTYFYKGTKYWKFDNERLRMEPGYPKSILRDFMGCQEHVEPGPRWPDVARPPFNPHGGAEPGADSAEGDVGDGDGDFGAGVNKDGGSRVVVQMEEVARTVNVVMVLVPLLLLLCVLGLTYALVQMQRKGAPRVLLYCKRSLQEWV
Chain of MMP24 (Q9Y5R2 156-645, species assumed): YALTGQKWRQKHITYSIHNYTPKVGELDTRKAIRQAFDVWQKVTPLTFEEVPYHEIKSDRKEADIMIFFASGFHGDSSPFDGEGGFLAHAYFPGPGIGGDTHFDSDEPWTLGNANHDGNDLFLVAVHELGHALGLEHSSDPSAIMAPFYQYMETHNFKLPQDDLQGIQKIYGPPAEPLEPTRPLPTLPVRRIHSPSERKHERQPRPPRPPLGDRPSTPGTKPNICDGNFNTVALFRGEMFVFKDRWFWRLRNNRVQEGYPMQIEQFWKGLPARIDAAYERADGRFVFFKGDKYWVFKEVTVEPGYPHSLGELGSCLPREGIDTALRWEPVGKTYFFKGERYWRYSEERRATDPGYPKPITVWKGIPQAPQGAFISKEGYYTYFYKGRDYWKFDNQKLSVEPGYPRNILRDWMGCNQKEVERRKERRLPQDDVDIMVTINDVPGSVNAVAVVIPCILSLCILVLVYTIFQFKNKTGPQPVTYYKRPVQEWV
Chain of MMP16 (P51512 120-607, species assumed): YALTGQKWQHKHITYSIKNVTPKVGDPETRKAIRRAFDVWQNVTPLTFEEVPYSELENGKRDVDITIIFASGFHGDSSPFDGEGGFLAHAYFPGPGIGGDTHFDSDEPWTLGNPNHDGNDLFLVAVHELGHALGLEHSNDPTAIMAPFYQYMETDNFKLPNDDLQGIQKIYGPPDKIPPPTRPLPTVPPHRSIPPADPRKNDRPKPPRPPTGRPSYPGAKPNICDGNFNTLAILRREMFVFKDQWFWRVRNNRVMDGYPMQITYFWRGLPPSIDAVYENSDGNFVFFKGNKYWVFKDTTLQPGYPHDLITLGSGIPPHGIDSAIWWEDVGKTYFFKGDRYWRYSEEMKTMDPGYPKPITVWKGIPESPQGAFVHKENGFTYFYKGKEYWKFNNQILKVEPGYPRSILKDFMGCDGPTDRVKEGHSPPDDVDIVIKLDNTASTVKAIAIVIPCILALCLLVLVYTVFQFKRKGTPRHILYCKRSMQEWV

Compound: CC(=O)O[C@H]1C(=O)[C@@]2(C)[C@H]([C@H](OC(=O)c3ccccc3)[C@]3(O)C[C@H](OC(=O)[C@H](O)[C@@H](NC(=O)c4ccccc4)c4ccccc4)C(C)=C1C3(C)C)[C@]1(OC(C)=O)CO[C@@H]1C[C@@H]2O [Paclitaxel]
- IC50 (HT29 [1]): 2 nM
- IC50 (HCC1806 [2]): 2 nM
- IC50 (SNU-16 [3]): 2 nM
- IC50 (HT1080 [4]): 1 nM
- IC50 (NCI-H1975 [5]): 5 nM
- IC50 (NCI-H292 [6]): 2.9 nM
- IC50 (HT1080 [7]): 6.6 nM
- IC50 (NCI-H1975 [8]): 7.2 nM
- IC50 (HCC1806 [9]): 2.7 nM
- IC50 (EBC-1 [10]): 4.1 nM
- IC50 (SNU-16 [11]): 2.5 nM
- IC50 (MOLP-8 [12]): 6.9 nM
- IC50 (HCT15 [13]): 112 nM
- IC50 (HT29 [14]): 4.1 nM
- IC50 (MDA-MB-231 [15]): 4.8 nM
- IC50 (PC-3 [16]): 9.2 nM
- IC50 (HCT15 [17]): 128 nM
- IC50 (PC-3 [18]): 12 nM
- IC50 (MOLP-8 [19]): 4 nM
- IC50 (EBC-1 [20]): 4 nM
- IC50 (NCI-H292 [21]): 2 nM
- IC50 (MDA-MB-231 [22]): 9 nM
- cytotoxic activity over the cell line panel (in words) (11 tumor cell lines): worked well on all the tested cell lines

Compound: C[C@H](NC(=O)CN(C)C(=O)CN(C)C(=O)CN(C)C(=O)CN(C)C(=O)CN(C)C(=O)CN(C)C(=O)CN(C)C(=O)CN(C)C(=O)CN(C)C(=O)CN(C)C(=O)CCN)C(=O)N[C@H]1CSCc2cc3cc(c2)CSC[C@H](NC(=O)[C@@H](C)NC(=O)[C@H](Cc2cccc4ccccc24)NC(=O)[C@H](CCC(=O)O)NC(=O)[C@H](CC(N)=O)NC(=O)[C@@H](C)NC1=O)C(=O)N[C@@H](CCC(=O)O)C(=O)N[C@@H](CC(=O)O)C(=O)N[C@@H](Cc1ccccc1)C(=O)N[C@@H](Cc1ccc(O)cc1)C(=O)N[C@@H](CC(=O)O)C(=O)N[C@@H](C(C)(C)C)C(=O)N[C@H](C(N)=O)CSC3 [Compound N241] (H-[βAla][Sar][Sar][Sar][Sar][Sar][Sar][Sar][Sar][Sar][Sar]AC[dA]NE[1Nal][dA]CEDFYD[Tle]C-NH2; linker 13-19-26 via TBMB; N-terminus and C-terminus assumed)
- binding (in words) (MMP15): no binding
- binding (in words) (catalytic domain of MT1): no binding
- Kd (hemopexin domain of MT1): ~2 nM
- impact on cell migration or invasion (in words) [23]: no direct impact
- impact on catalytic activity (in words) (MT1): no direct impact
- binding (in words) (MMP24): no binding
- impact on catalytic activity (in words) (MMP2 [24]): no direct impact
- impact on catalytic activity (in words) (MMP1 [25]): no direct impact
- binding (in words) (MMP2 [26]): no binding
- binding (in words) (Pro-MMP1): no binding
- binding (in words) (MMP1 [27]): no binding
- binding (in words) (MMP16): no binding
- impact on catalytic activity (in words) (MMP9): no direct impact

Compound: (B-Ala)-Sar10-ACVPCADFPIWYC (SEQ ID NO: 17) (AXXXXXXXXXXACVPCADFPIWYC; not fully specified; N-methyl; non-natural residues) [non-binding peptide]
- inhibition in MT1-MMP fluorescent polarization competition (MT1-MMP): no inhibition
